In PubChem BioAssay AID250 (DTP/NCI, 2004) one finds T/C data, which are given here for eleven molecules.

Inconclusive results and toxic doses are left out.

This assay concerns BDF1 mice, L1210 leukemia sc, survival T/C. Description: NCI In Vivo Anticancer Drug Screen. Data for tumor model L1210 Leukemia (subcutaneous) in B6D2F1 (BDF1) mice. The settings on record: endpoint: median survival time, higher = longer survival. In short, it runs like this:
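Mice carrying transplanted tumors received test compounds, and survival or tumor size was measured. Values are the treated-group measurement (T) divided by that of the vehicle-treated control group (C).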

Where [1] appears, read: dose: 39.0 mg/kg/injection, schedule: Q01DX Z (sc), vehicle: saline.
[2] abbreviates: dose: 65.0 mg/kg/injection, schedule: Q01DX Z (sc), vehicle: saline.
The mark [3] stands for this setting: dose: 108.0 mg/kg/injection, schedule: Q01DX Z (sc), vehicle: saline.
[4] abbreviates: dose: 180.0 mg/kg/injection, schedule: Q01DX Z (sc), vehicle: saline.
Where [5] appears, read: dose: 300.0 mg/kg/injection, schedule: Q01DX Z (sc), vehicle: saline.

Take `O=C(O)c1[nH]c(=O)[nH]c(=O)c1F`: the T/C reads like this: (dose: 2.5 mg/kg/injection, schedule: Q01DX Z (sc), vehicle: methylcellulose (MC)) 105 % of control; (dose: 8.0 mg/kg/injection, schedule: Q01DX Z (sc), vehicle: saline) 166 % of control; (dose: 10.0 mg/kg/injection, schedule: Q01DX Z (sc), vehicle: methylcellulose (MC)) 158 % of control; (dose: 16.0 mg/kg/injection, schedule: Q01DX Z (sc), vehicle: saline) 150 % of control; (dose: 20.0 mg/kg/injection, schedule: Q01DX Z (sc), vehicle: methylcellulose (MC)) 164 % of control; (dose: 32.0 mg/kg/injection, schedule: Q01DX Z (sc), vehicle: saline) 166 % of control. In addition, the T/C (dose: 40.0 mg/kg/injection, schedule: Q01DX Z (sc), vehicle: methylcellulose (MC)) is 176 % of control; the T/C (dose: 64.0 mg/kg/injection, schedule: Q01DX Z (sc), vehicle: saline) is 155 % of control; the T/C (dose: 128.0 mg/kg/injection, schedule: Q01DX Z (sc), vehicle: saline) was 155 % of control; the T/C (dose: 256.0 mg/kg/injection, schedule: Q01DX Z (sc), vehicle: saline) is 150 % of control.

Turning to `CC[C@H]1CN2CCc3cc(OC)c(OC)cc3[C@@H]2C[C@@H]1C[C@H]1NCCc2cc(OC)c(OC)cc21`, the T/C was 107 % of control (dose: 0.39 mg/kg/injection, schedule: Q03HX003 (sc), vehicle: saline); 92 % of control (dose: 0.65 mg/kg/injection, schedule: Q03HX003 (sc), vehicle: saline); 100 % of control (dose: 1.08 mg/kg/injection, schedule: Q03HX003 (sc), vehicle: saline); 100 % of control (dose: 1.8 mg/kg/injection, schedule: Q01DX009 (sc), vehicle: saline); 114 % of control (dose: 1.8 mg/kg/injection, schedule: Q03HX003 (sc), vehicle: saline); 103 % of control (dose: 3.0 mg/kg/injection, schedule: Q01DX009 (sc), vehicle: saline). Besides, the T/C was 96 % of control (dose: 5.0 mg/kg/injection, schedule: Q04DX003 (sc), vehicle: saline); 107 % of control (dose: 8.4 mg/kg/injection, schedule: Q04DX003 (sc), vehicle: saline); 124 % of control (dose: 16.0 mg/kg/injection, schedule: Q01DX001 (ip), vehicle: acid diluted with saline).

`Nc1nc(SCc2ccccc2)c2[nH]cnc2n1`: the T/C is 122 % of control (dose: 180.0 mg/kg/injection, schedule: Q01DX Z (sc), vehicle: methylcellulose (MC)); 122 % of control (dose: 300.0 mg/kg/injection, schedule: Q01DX Z (sc), vehicle: methylcellulose (MC)); 111 % of control (dose: 500.0 mg/kg/injection, schedule: Q01DX Z (sc), vehicle: methylcellulose (MC)).

Regarding `Nc1ccn(C2OC(COP(=O)(O)O)C(O)C2O)c(=O)n1` (stereo not given), the T/C reads like this: (dose: 3.5 mg/kg/injection, schedule: Q01DX Z (sc), vehicle: other) 200 % of control; (dose: 5.8 mg/kg/injection, schedule: Q01DX Z (sc), vehicle: other) 244 % of control; (dose: 9.7 mg/kg/injection, schedule: Q01DX Z (sc), vehicle: other) 272 % of control; (dose: 16.2 mg/kg/injection, schedule: Q01DX Z (sc), vehicle: other) 300 % of control; (dose: 27.0 mg/kg/injection, schedule: Q01DX Z (sc), vehicle: other) 350 % of control; (dose: 45.1 mg/kg/injection, schedule: Q01DX Z (sc), vehicle: other) 305 % of control. Moreover, the T/C (dose: 75.1 mg/kg/injection, schedule: Q01DX Z (sc), vehicle: other) was 205 % of control.

For `CN=C(NC)c1ccc(NC(=O)Nc2ccc(NC(=O)Nc3ccc(C(=NC)NC)cc3)cc2)cc1`, the T/C was 100 % of control (dose: 3.0 mg/kg/injection, schedule: Q01DX Z (sc), vehicle: saline); 105 % of control (dose: 5.0 mg/kg/injection, schedule: Q01DX Z (sc), vehicle: saline); 100 % of control (dose: 8.4 mg/kg/injection, schedule: Q01DX Z (sc), vehicle: saline); 105 % of control (dose: 14.0 mg/kg/injection, schedule: Q01DX Z (sc), vehicle: saline); 115 % of control under setting [1]; 110 % of control under setting [2].

`O=C1C(NC(=O)C2CCCCC2)=C(N2CC2)C(=O)C(NC(=O)C2CCCCC2)=C1N1CC1`: the T/C is, setting by setting: (dose: 180.0 mg/kg/injection, schedule: Q01DX Z (sc), vehicle: carboxymethylcellulose (CMC)) 100 % of control; (dose: 300.0 mg/kg/injection, schedule: Q01DX Z (sc), vehicle: carboxymethylcellulose (CMC)) 100 % of control; (dose: 500.0 mg/kg/injection, schedule: Q01DX Z (sc), vehicle: carboxymethylcellulose (CMC)) 100 % of control; (dose: 833.0 mg/kg/injection, schedule: Q01DX Z (sc), vehicle: carboxymethylcellulose (CMC)) 100 % of control; (dose: 1388.0 mg/kg/injection, schedule: Q01DX Z (sc), vehicle: carboxymethylcellulose (CMC)) 100 % of control.

Consider `CCCn1cnc2c(=S)nc(N)[nH]c21`, for which the T/C is 100 % of control (dose: 0.65 mg/kg/injection, schedule: Q01DX Z (sc), vehicle: methylcellulose (MC)); 100 % of control (dose: 0.65 mg/kg/injection, schedule: Q01DX Z (sc), vehicle: other); 100 % of control (dose: 1.08 mg/kg/injection, schedule: Q01DX Z (sc), vehicle: methylcellulose (MC)); 100 % of control (dose: 1.08 mg/kg/injection, schedule: Q01DX Z (sc), vehicle: other); 100 % of control (dose: 1.8 mg/kg/injection, schedule: Q01DX Z (sc), vehicle: methylcellulose (MC)); 105 % of control (dose: 1.8 mg/kg/injection, schedule: Q01DX Z (sc), vehicle: other). Also, the T/C by setting is: (dose: 3.0 mg/kg/injection, schedule: Q01DX Z (sc), vehicle: methylcellulose (MC)) 111 % of control; (dose: 3.0 mg/kg/injection, schedule: Q01DX Z (sc), vehicle: other) 111 % of control; (dose: 5.0 mg/kg/injection, schedule: Q01DX Z (sc), vehicle: methylcellulose (MC)) 111 % of control; (dose: 5.0 mg/kg/injection, schedule: Q01DX Z (sc), vehicle: other) 122 % of control; (dose: 8.4 mg/kg/injection, schedule: Q01DX Z (sc), vehicle: methylcellulose (MC)) 122 % of control; (dose: 8.4 mg/kg/injection, schedule: Q01DX Z (sc), vehicle: other) 155 % of control. The T/C is 161 % of control (dose: 14.0 mg/kg/injection, schedule: Q01DX Z (sc), vehicle: other); 155 % of control (dose: 230.0 mg/kg/injection, schedule: Q01DX Z (sc), vehicle: other); 150 % of control (dose: 390.0 mg/kg/injection, schedule: Q01DX Z (sc), vehicle: other).

With `O=C(Nc1ccc(NC(=O)Nc2cccc(C3=NCCN3)c2)cc1)Nc1cccc(C2=NCCN2)c1`, the T/C by setting is: (dose: 23.0 mg/kg/injection, schedule: Q01DX Z (sc), vehicle: saline) 100 % of control; under setting [1], 110 % of control; under setting [2], 100 % of control; under setting [3], 95 % of control; under setting [4], 100 % of control; under setting [5], 100 % of control.

In the case of `O=c1[nH]c(=O)n(C2CC(O)C(CO)O2)cc1Br` (stereo not given), the T/C under setting [2] is 111 % of control; the T/C under setting [3] is 111 % of control; the T/C under setting [4] was 111 % of control; the T/C under setting [5] was 111 % of control; the T/C (dose: 500.0 mg/kg/injection, schedule: Q01DX Z (sc), vehicle: saline) is 122 % of control; the T/C (dose: 833.0 mg/kg/injection, schedule: Q01DX Z (sc), vehicle: saline) was 122 % of control.

As for `ClCCN(CCCl)CCNc1ccnc2cc(Cl)ccc12`, the T/C runs as follows: (dose: 1.08 mg/kg/injection, schedule: Q01DX Z (sc), vehicle: water) 100 % of control; (dose: 8.4 mg/kg/injection, schedule: Q01DX Z (sc), vehicle: water) 100 % of control; (dose: 23.0 mg/kg/injection, schedule: Q01DX Z (sc), vehicle: water) 100 % of control; (dose: 39.0 mg/kg/injection, schedule: Q01DX Z (sc), vehicle: water) 100 % of control; (dose: 65.0 mg/kg/injection, schedule: Q01DX Z (sc), vehicle: olive oil, sesame oil, peanut oil) 100 % of control.

With `CC(C)Sc1ncnc2nc[nH]c12`, the T/C was 110 % of control (dose: 38.9 mg/kg/injection, schedule: Q01DX Z (sc), vehicle: methylcellulose (MC)); 155 % of control (dose: 64.8 mg/kg/injection, schedule: Q01DX Z (sc), vehicle: methylcellulose (MC)); 155 % of control (dose: 108.0 mg/kg/injection, schedule: Q01DX Z (sc), vehicle: methylcellulose (MC)).
